Results from US10690661B2, “Yeast-based biosensor” (priority 2014, dated 2020).
Entries after “also recorded” stand apart in the source; their conditions may differ.

Experiments:
[1] = molecular target: Mutant receptors (RecCys1); test: Dose response of mutant receptors evolved for cystatin chimera Cys1; assay type: cell-based, Saccharomyces cerevisiae; conditions: FIG. 9a
Text: (§1) Receptor activation was coupled to green fluorescent protein (GFP) expression by cloning GFP downstream of the Ste2p-activated FUS1 promoter. Therefore a receptor mutant that is successfully activated by the POI will result in the cell fluorescing green. The discriminating power of the screen is improved by including an internal control, constitutive expression of mKate (a red fluorescent protein). Red fluorescence corresponds to cell size, and allows us to normalize the GFP measurement for more accurate sorting. […] The initial HTS has false positive (FP) rates of 20% and false negative (FN) rates of 10%. The FP and FN rate is overcome by doing multiple rounds of enrichment. In four rounds of enrichment, a population of cells is isolated that originally was 1 in 10^6.
(§2) Initial attempts to evolve directly for the cystatin/GSS peptides were unsuccessful. To take smaller evolutionary steps, chimera peptides were designed that were more similar to α-factor. Receptors were evolved to recognize peptide that contain several changes in the peptide sequence (FIG. 9a-c).

native Ste2 receptor [2] = molecular target: T1, native Ste2 receptor (Saccharomyces cerevisiae, UniProt D6VTK4, A176T/D201G/D370N/S34T); conditions: physiological concentrations; previous literature; cited from earlier work
T1 construct: contains yeast Sterile2 (Ste2) receptor between the constitutive GPD promoter and the CYC1 terminator; expressed in transfected cells; host or cells: S. cerevisiae MPY578t5 derivatives (native STE2 removed), plasmid pJB036
T1 sequence (D6VTK4 whole entry S34T/A176T/D201G/D370N): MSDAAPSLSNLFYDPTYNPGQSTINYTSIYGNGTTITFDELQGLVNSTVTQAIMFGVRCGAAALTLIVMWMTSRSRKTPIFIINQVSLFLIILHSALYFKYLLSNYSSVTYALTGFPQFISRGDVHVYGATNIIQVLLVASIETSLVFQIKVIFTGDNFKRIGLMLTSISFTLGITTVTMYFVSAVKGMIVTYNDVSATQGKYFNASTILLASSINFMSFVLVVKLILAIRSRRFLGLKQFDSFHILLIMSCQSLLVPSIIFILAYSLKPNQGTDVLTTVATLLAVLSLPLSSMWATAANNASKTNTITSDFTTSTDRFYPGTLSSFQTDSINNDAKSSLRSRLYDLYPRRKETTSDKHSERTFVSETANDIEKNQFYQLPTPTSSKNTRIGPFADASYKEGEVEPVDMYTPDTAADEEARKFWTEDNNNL

[3] = system: evolved cystatin receptor; assay type: cell-based, Saccharomyces cerevisiae
[4] = system: re-mutagenized mutant Ste2 receptor library; test: Screen of library made by re-mutagenizing a Variant 56-sensitive mutant receptor; assay type: cell-based, Saccharomyces cerevisiae; conditions: FIG. 7a
Text: Specificity can be increased with iterative selection and counter-selection (FIG. 7b). […] Round 2 library mutants were also screened for lack of activity for α-factor, confirming the evolution of receptors for specificity against α-factor (FIG. 7c).

[5] = molecular target: mutant Ste2 receptors isolated for Variant 56; test: GFP/RFP reporter dose response, mutants isolated for sensitivity to ligand Variant 56
native Ste2 receptor [6] = molecular target: T1, native Ste2 receptor; test: GFP/RFP reporter dose response in yeast expressing the native Ste2 receptor; assay type: cell-based; conditions: compared to the native ligand
Mutant receptor RecGssB = test: Dose response of mutant receptors evolved for GSS chimera GssB; assay type: cell-based, Saccharomyces cerevisiae
Text: as §1, §2

[7] = system: evolved receptors (from Ste2p); test: Sensitivity enhancement dose response of evolved receptors; assay type: cell-based, Saccharomyces cerevisiae; conditions: FIG. 11
[8] = molecular target: Mutant 44.1 (mutant Ste2 receptor); test: GFP/RFP reporter dose response, isolated mutant receptor Mutant 44.1; conditions: alpha factor on Mutant 44.1, compared with native Ste2; FIG. 3B
[9] = molecular target: Mutant 56.5 (mutant Ste2 receptor); test: GFP/RFP reporter dose response, isolated mutant receptor Mutant 56.5; conditions: alpha factor on Mutant 56.5, compared with native Ste2; FIG. 4B
[10] = molecular target: Mutant receptors derived from RecCys1 mutagenesis; test: Dose response of mutant receptors evolved for cystatin chimera Cys2; assay type: cell-based, Saccharomyces cerevisiae; conditions: FIG. 9b
Text: as §1, §2
Receptors have been successfully evolved for some chimeras. Two steps have been completed for cystatin (evolving for Cys1 and then using that receptor as a parent to evolve for Cys2) and one step for GSS.

## HALALKPGEPMY [Cys1]
[1]
  EC50 relative to RecSte2p: lower

## WAWLQLKPGQPMY
Native Ste2 receptor [2]
  response of Ste2 to the ligand: very low response, if any

## ALDFAVGEYNK (listed as Cystatin chimera) [Cys5]
[3]; FIG. 13B
  response of evolved cystatin receptor: rises in response
[3]; FIG. 14A-C
  response of receptor mutants evolved from Ste2p (dose response curve): respond

## WHYLQLKPGQPMY [Variant 56]
Native Ste2 receptor [2]
  response of Ste2 to the ligand: very low response, if any
[4]
  activity of new library after second round of mutagenesis: increased activity
[5]; all five isolated mutants, FIG. 4A, FIG. 5
  EC50 relative to Ste2: significantly lower
Native Ste2 receptor [6]
  activity of the native Ste2 receptor for the ligand: little activity

## WHWLQLKPGEPLYGR [GssB]
Mutant receptor RecGssB; FIG. 9c
  EC50 relative to RecSte2p: lower

## WHWLQLKPGQPMY [α-factor]
[7]
  concentration at which evolved receptors respond, relative to wild type/Ste2p receptor: concentrations lower than the wild type
[5]; FIG. 4B
  activity of isolated mutants for the native pheromone: maintained some activity
Mutant receptor RecGssB; FIG. 9d
  response of evolved receptor to the native ligand: do not respond; also recorded: no longer responds
[8]
  EC50 relative to Ste2: significantly higher
[9]
  EC50 relative to Ste2: significantly higher

## LRLLALKPGQPLYGR [Gss1]
Mutant receptor RecGssB; receptors carrying mutations that enhance the response to GssB
  effect of GssB-enhancing receptor mutations on response: enhance response

## ALALKPGEPMY [Cys2]
[10]
  EC50 relative to RecSte2p: lower
